Reference: patent US9844550B2, “Phtalazinone derivatives and manufacturing process thereof” (ILDONG PHARM CO., LTD., priority 2013, dated 2017)
pIC50: −log10 of the molar value. Blank lines part the entries; values can stand above or below the compound they belong to.

Test system: MDA-MB-436 breast cancer cell line
Assay: Cell viability assay (MDA-MB-436)
Type: cell-based
Settings: Homo sapiens, 144 h; MDA-MB-436 cells, treated 6 days
Protocol: 2. Cell Viability Assay (MDA-MB-436)
Cell viability assay was performed by using MDA-MB-436 cell line to measure cytotoxicity of compounds in the present invention. MDA-MB-436 breast cancer cell line was seeded into 96-well plates at 37° C. under 5% CO2 atmosphere using DMEM/F12 (Gibco) containing 10% FBS (Hyclone). After 24 hr incubation, cells were treated with the invented compounds at various concentrations for 6 days. The medium was changed every 3 day. 6 days later, A fluorescence reagent was used to determine the IC50 values.

SMILES: CC1(C)NC(=O)N(C2CN(C(=O)c3cc(Cc4n[nH]c(=O)c5ccccc45)ccc3F)C2)C1=O [Compound I-14, 3-(1-(2-fluoro-5-((4-oxo-3,4-dihydrophthalazin-1-yl)methyl)benzoyl)azetidin-3-yl)-5,5-dimethylimidazolidine-2,4-dione]
pIC50: 6.52 to 7.30

SMILES: O=C(c1cc(Cc2n[nH]c(=O)c3ccccc23)ccc1F)N1CC[C@@H](NC2CC2)C1 [Compound I-29, (R)-4-(3-(3-(cyclopropylamino)pyrrolidine-1-carbonyl)-4-fluorobenzyl)phthalazin-1(2H)-one]
pIC50: 6.00 to 6.52

SMILES: O=C(c1cc(Cc2n[nH]c(=O)c3ccccc23)ccc1F)N1CC(N(CC2CC2)CC2CC2)C1 [Compound I-34, 4-(3-(3-(bis(cyclopropylmethyl)amino)azetidine-1-carbonyl)-4-fluorobenzyl)phthalazin-1(2H)-one]
pIC50: 6.00 to 6.52

SMILES: CC(C)(C)CNC1CN(C(=O)c2cc(Cc3n[nH]c(=O)c4ccccc34)ccc2F)C1 [Compound I-37, 4-(4-fluoro-3-(3-(neopentylamino)azetidine-1-carbonyl)benzyl)phthalazin-1(2H)-one]
pIC50: 7.30 to 8.30

SMILES: CC1(C)CCCC1NC1CN(C(=O)c2cc(Cc3n[nH]c(=O)c4ccccc34)ccc2F)C1 (centres unmarked) [Compound I-38, 4-(3-(3-((2,2-dimethylcyclopentyl)amino)azetidine-1-carbonyl)-4-fluorobenzyl)phthalazin-1(2H)-one]
pIC50: 7.30 to 8.30

SMILES: CCOC(=O)C1=C(NC2CN(C(=O)c3cc(Cc4n[nH]c(=O)c5ccccc45)ccc3F)C2)CCC1 [Compound I-39, ethyl 2-((1-(2-fluoro-5-((4-oxo-3,4-dihydrophthalazin-1-yl)methyl)benzoyl)azetidin-3-yl)amino)cyclopent-1-enecarboxylate]
pIC50: 6.00 to 6.52

SMILES: CC(C)CC(C)NC1CN(C(=O)c2cc(Cc3n[nH]c(=O)c4ccccc34)ccc2F)C1 (centres unmarked) [Compound I-46, 4-(4-fluoro-3-(3-((4-methylpentan-2-yl)amino)azetidine-1-carbonyl)benzyl)phthalazin-1(2H)-one]
pIC50: 7.30 to 8.30

SMILES: CCCC(C)NC1CN(C(=O)c2cc(Cc3n[nH]c(=O)c4ccccc34)ccc2F)C1 (centres unmarked) [Compound I-48, 4-(4-fluoro-3-(3-(pentan-2-ylamino)azetidine-1-carbonyl)benzyl)phthalazin-1(2H)-one]
pIC50: ≥ 8.30

SMILES: CC(NC1CN(C(=O)c2cc(Cc3n[nH]c(=O)c4ccccc34)ccc2F)C1)C1(C)CC1 (centres unmarked) [Compound I-49, 4-(4-fluoro-3-(3-((1-(1-methylcyclopropyl)ethyl)amino)azetidine-1-carbonyl)benzyl)phthalazin-1(2H)-one]
pIC50: 7.30 to 8.30

SMILES: CC(CNC1CN(C(=O)c2cc(Cc3n[nH]c(=O)c4ccccc34)ccc2F)C1)C(F)(F)F (centres unmarked) [Compound I-50, 4-(4-fluoro-3-(3-((3,3,3-trifluoro-2-methylpropyl)amino)azetidine-1-carbonyl)benzyl)phthalazin-1(2H)-one]
pIC50: 6.52 to 7.30

SMILES: C=CCNC1CN(C(=O)c2cc(Cc3n[nH]c(=O)c4ccccc34)ccc2F)C1 [Compound I-51, 4-(3-(3-(allylamino)azetidine-1-carbonyl)-4-fluorobenzyl)phthalazin-1(2H)-one]
pIC50: 7.30 to 8.30

SMILES: CC(C)CCNC1CN(C(=O)c2cc(Cc3n[nH]c(=O)c4ccccc34)ccc2F)C1 [Compound I-52, 4-(4-fluoro-3-(3-(isopentylamino)azetidine-1-carbonyl)benzyl)phthalazin-1(2H)-one]
pIC50: ≥ 8.30

SMILES: CC(C)=CCNC1CN(C(=O)c2cc(Cc3n[nH]c(=O)c4ccccc34)ccc2F)C1 [Compound I-54, 4-(4-fluoro-3-(3-((3-methylbut-2-en-1-yl)amino)azetidine-1-carbonyl)benzyl)phthalazin-1(2H)-one]
pIC50: 7.30 to 8.30

SMILES: O=C(c1cc(Cc2n[nH]c(=O)c3ccccc23)ccc1F)N1CC(NCCCC(F)(F)F)C1 [Compound I-56, 4-(4-fluoro-3-(3-((4,4,4-trifluorobutyl)amino)azetidine-1-carbonyl)benzyl)phthalazin-1(2H)-one]
pIC50: 6.00 to 6.52

SMILES: CCCCCNC1CN(C(=O)c2cc(Cc3n[nH]c(=O)c4ccccc34)ccc2F)C1 [Compound I-57, 4-(4-fluoro-3-(3-(pentylamino)azetidine-1-carbonyl)benzyl)phthalazin-1(2H)-one]
pIC50: 7.30 to 8.30

SMILES: O=C(c1cc(Cc2n[nH]c(=O)c3ccccc23)ccc1F)N1CC(NCCC2CC2)C1 [Compound I-58, 4-(3-(3-((2-cyclopropylethyl)amino)azetidine-1-carbonyl)-4-fluorobenzyl)phthalazin-1(2H)-one]
pIC50: 7.30 to 8.30

SMILES: CCCNC1CN(C(=O)c2cc(Cc3n[nH]c(=O)c4ccccc34)ccc2F)C1 [Compound I-59, 4-(4-fluoro-3-(3-(propylamino)azetidine-1-carbonyl)benzyl)phthalazin-1(2H)-one]
pIC50: 7.30 to 8.30

SMILES: CN(Cc1ccncc1)[C@@H]1CCN(C(=O)c2cc(Cc3n[nH]c(=O)c4ccccc34)ccc2F)C1 [Compound I-61, (R)-4-(4-fluoro-3-(3-(methyl(pyridin-4-ylmethyl)amino)pyrrolidine-1-carbonyl)benzyl)phthalazin-1(2H)-one]
pIC50: 6.52 to 7.30

SMILES: CN(Cc1cccnc1)C1CN(C(=O)c2cc(Cc3n[nH]c(=O)c4ccccc34)ccc2F)C1 [Compound I-66, 4-(4-fluoro-3-(3-(methyl(pyridin-3-ylmethyl)amino)azetidine-1-carbonyl)benzyl)phthalazin-1(2H)-one]
pIC50: 6.52 to 7.30

SMILES: CCN(C1CC1)C1CN(C(=O)c2cc(Cc3n[nH]c(=O)c4ccccc34)ccc2F)C1 [Compound I-70, 4-(3-(3-(cyclopropyl(ethyl)amino)azetidine-1-carbonyl)-4-fluorobenzyl)phthalazin-1(2H)-one]
pIC50: 6.52 to 7.30

SMILES: O=C(c1cc(Cc2n[nH]c(=O)c3ccccc23)ccc1F)N1CC(Nc2ccccc2)C1 [Compound I-79, 4-(4-fluoro-3-(3-(phenylamino)azetidine-1-carbonyl)benzyl)phthalazin-1(2H)-one]
pIC50: 6.52 to 7.30

Results, then the compound that gave them:

pIC50: 6.52 to 7.30
SMILES: O=C(c1cc(Cc2n[nH]c(=O)c3ccccc23)ccc1F)N1CC(C(=O)N2CCC(F)(F)C2)C1 [Compound I-19, 4-(3-(3-(3,3-difluoropyrrolidine-1-carbonyl)azetidine-1-carbonyl)-4-fluorobenzyl)phthalazin-1(2H)-one]

pIC50: 6.52 to 7.30
SMILES: O=C(c1cc(Cc2n[nH]c(=O)c3ccccc23)ccc1F)N1CC(C(=O)N2CCCC2)C1 [Compound I-22, 4-(4-fluoro-3-(3-(pyrrolidine-1-carbonyl)azetidine-1-carbonyl)benzyl)phthalazin-1(2H)-one]

pIC50: 6.00 to 6.52
SMILES: CN(C)[C@H]1CCN(C(=O)C2CN(C(=O)c3cc(Cc4n[nH]c(=O)c5ccccc45)ccc3F)C2)C1 [Compound I-24, (S)-4-(3-(3-(3-(dimethylamino)pyrrolidine-1-carbonyl)azetidine-1-carbonyl)-4-fluorobenzyl)phthalazin-1(2H)-one]

pIC50: 7.30 to 8.30
SMILES: O=C(c1cc(Cc2n[nH]c(=O)c3ccccc23)ccc1F)N1CC(NC(C2CC2)C2CC2)C1 [Compound I-45, 4-(3-(3-((dicyclopropylmethyl)amino)azetidine-1-carbonyl)-4-fluorobenzyl)phthalazin-1(2H)-one]

pIC50: 7.30 to 8.30
SMILES: O=C(c1cc(Cc2n[nH]c(=O)c3ccccc23)ccc1F)N1CC(NCC2CCCC2)C1 [Compound I-55, 4-(3-(3-((cyclopentylmethyl)amino)azetidine-1-carbonyl)-4-fluorobenzyl)phthalazin-1(2H)-one]

pIC50: 6.52 to 7.30
SMILES: CN(C1CC1)C1CN(C(=O)c2cc(Cc3n[nH]c(=O)c4ccccc34)ccc2F)C1 [Compound I-69, 4-(3-(3-(cyclopropyl(methyl)amino)azetidine-1-carbonyl)-4-fluorobenzyl)phthalazin-1(2H)-one]

pIC50: 6.52 to 7.30
SMILES: CN(C1CCC1)C1CN(C(=O)c2cc(Cc3n[nH]c(=O)c4ccccc34)ccc2F)C1 [Compound I-71, 4-(3-(3-(cyclobutyl(methyl)amino)azetidine-1-carbonyl)-4-fluorobenzyl)phthalazin-1(2H)-one]

pIC50: 6.52 to 7.30
SMILES: O=C(c1cc(Cc2n[nH]c(=O)c3ccccc23)ccc1F)N1CC(N2CCC(F)(F)C2)C1 [Compound I-73, 4-(3-(3-(3,3-difluoropyrrolidin-1-yl)azetidine-1-carbonyl)-4-fluorobenzyl)phthalazin-1(2H)-one]

pIC50: 7.30 to 8.30
SMILES: O=C(c1cc(Cc2n[nH]c(=O)c3ccccc23)ccc1F)N1CC(N2CCC(F)CC2)C1 [Compound I-74, 4-(4-fluoro-3-(3-(4-fluoropiperidin-1-yl)azetidine-1-carbonyl)benzyl)phthalazin-1(2H)-one]

pIC50: 7.30 to 8.30
SMILES: O=C(c1cc(Cc2n[nH]c(=O)c3ccccc23)ccc1F)N1CC(N2CCCC2)C1 [Compound I-76, 4-(4-fluoro-3-(3-(pyrrolidin-1-yl)azetidine-1-carbonyl)benzyl)phthalazin-1(2H)-one]

pIC50: 6.52 to 7.30
SMILES: O=C(c1cc(Cc2n[nH]c(=O)c3ccccc23)ccc1F)N1CC(N2CCCCC2)C1 [Compound I-77, 4-(4-fluoro-3-(3-(piperidin-1-yl)azetidine-1-carbonyl)benzyl)phthalazin-1(2H)-one]

pIC50: 6.00 to 6.52
SMILES: CN1CCN(C2CN(C(=O)c3cc(Cc4n[nH]c(=O)c5ccccc45)ccc3F)C2)CC1 [Compound I-78, 4-(4-fluoro-3-(3-(4-methylpiperazin-1-yl)azetidine-1-carbonyl)benzyl)phthalazin-1(2H)-one]

pIC50: 6.52 to 7.30
SMILES: C#CCNC1CN(C(=O)c2cc(Cc3n[nH]c(=O)c4ccccc34)ccc2F)C1 [Compound I-81, 4-(4-fluoro-3-(3-(prop-2-yn-1-ylamino)azetidine-1-carbonyl)benzyl)phthalazin-1(2H)-one]

pIC50: 6.52 to 7.30
SMILES: O=C(c1cc(Cc2n[nH]c(=O)c3ccccc23)ccc1F)N1CC(NC2(CO)CC2)C1 [Compound I-84, 4-(4-fluoro-3-(3-((1-(hydroxymethyl)cyclopropyl)amino)azetidine-1-carbonyl)benzyl)phthalazin-1(2H)-one]
